Like-named read-outs stand apart in the source and are kept apart here. *1 amine or outer side, *2 acyl side, *3 side chain or, on linkers, in order; H or OH if unused. Where a SMILES comes first, the peptide text is derived from it. [ ]: non-standard residue; d: D form. The star is where a group is joined. X2 = CC=C(N[*:1])C(=O)[*:2]; dOrn = NCCC[C@@H](N)C(=O)O; Valol = CC(C)[C@@H](CO)N*; X1 = CCC(C)C(O)C(=O)*
What was measured:
[1] = cited from earlier work
Experimental: For cytotoxicity assays, HepG2 cells were incubated in the presence of brevibacillin concentrations ranging from 2 to 64 mg/L. After 24 h of incubation, cell viability was determined using an XTT kit.

human erythrocytes = test: Hemolytic activity
Experimental: This assay was performed as per the method described in previous studies ([Ling et al., 2015]; [Li et al., 2018]). Briefly, erythrocytes were isolated from a healthy human volunteer donor (ordered from Sanquin, Netherlands^1) and washed with phosphate-buffered saline (PBS) three times. After that, peptides were added at final concentrations of 128, 64, 32, 16, 8, 4, 2, 1, and 0 mg/L in PBS containing 2% (v/v) erythrocytes. The cells were incubated at 37°C for 1 h and centrifuged for 5 min at 8,000 g. The supernatant was transferred to a 96-well plate, and the absorbance was measured at a wavelength of 450 nm with a Thermo Scientific Varioskan^TM LUX multimode microplate reader. The absorbance relative to the positive control, which was treated with 10% Triton X-100, was defined as the percentage of hemolysis. The 50% human blood cell hemolysis concentration (HC50) of peptides was calculated as described in previous studies ([Reed and Muench, 1938]).
(§1) GraphPad Prism 7.0 was used to fit the data of hemolytic assay and cytotoxicity assay in Figure 3. The experiments were conducted in triplicate, and data are presented as the mean value of triplicate experiments. Data Explorer Software was used to analyze the MALDI-TOF data; Thermo Scientific Xcalibur software was used to analyze the LC–MS/MS data. The statistical significance of the data was assessed using Duncan’s multiple-range test with the software SPSS Statistics 19.0. P-values less than 0.05 were considered to be statistically significant.

HepG2 cells = details: for HepG2 CC50: 24 h
Experimental: The cytotoxicity of brevibacillins was evaluated on HepG2 cells by using the XTT (Cell Proliferation Kit XTT, AppliChem) assay ([Roehm et al., 1991]). HepG2 cells [in Dulbecco’s modified Eagle’s medium (DMEM) supplemented with 10% fetal bovine serum] were seeded into 96-well plates and incubated at 37°C with 5% CO2. After 24 h, the medium was replaced with a fresh medium (DMEM with 2% FBS, 100 μl per well) containing different concentrations of brevibacillins ([Zhao et al., 2017]). After 24 h of incubation, the XTT reagent was added to the cultures according to the manufacturer’s instructions, and the plates were incubated at 37°C for 2 h with 5% CO2. Subsequently, the absorbance values were measured by using a Varioskan^TM LUX multimode microplate reader (Thermo Fisher Scientific) at 485 nm (reference, 690 nm). The 50% cell toxicity (CC50) of peptides was calculated as described in a previous study ([Reed and Muench, 1938]).
as §1

Molecule | CC50 [1] | hemolytic activity at 128 mg/L (human erythrocytes) | HC50 (concentration that causes 50% hemolysis of human red blood cells) (human erythrocytes; 1 h) | CC50 (HepG2) relative to MIC values against bacterial pathogens (HepG2 cells) | cytotoxicity to HepG2 cells at 16 mg/L (HepG2 cells) | HepG2 CC50 (HepG2 cells) | hemolytic activity at 128 mg/L (human erythrocytes; 128 mg/L, human erythrocytes, 37°C, 1 h) | cytotoxicity to HepG2 cells at 32 mg/L (HepG2 cells) | hemolytic activity at 64 mg/L (human erythrocytes)
bogorol | below 8 mg/L |  |  |  |  |  |  |  | 
CC=C(NC(=O)C(O)C(C)CC)C(=O)N[C@@H](CC(C)C)C(=O)N[C@H](CCCN)C(=O)N[C@H](C(=O)N[C@H](C(=O)N[C@H](C(=O)N[C@H](CCCCN)C(=O)N[C@H](C(=O)N[C@H](C(=O)N[C@@H](CCCCN)C(=O)N[C@H](Cc1ccc(O)cc1)C(=O)N[C@@H](CC(C)C)C(=O)N[C@H](CO)C(C)C)C(C)C)C(C)C)C(C)C)C(C)C)[C@@H](C)CC (stereo partly drawn) [brevibacillin V] (X1-[X2]L[dOrn]IVV[dK]VVK[dY]L-Valol) |  | completely lysed | 73.1 ± 1.4 mg/L | 2.5- to fivefold | all of the HepG2 cells were killed | 9.89 ± 0.67 µg/mL |  |  | 
CC=C(NC(=O)C(O)C(C)CC)C(=O)N[C@@H](CC(C)C)C(=O)N[C@H](CCCN)C(=O)N[C@H](C(=O)N[C@H](C(=O)N[C@H](C(=O)N[C@H](CCCCN)C(=O)N[C@H](C(=O)N[C@H](C(=O)N[C@@H](CCCCN)C(=O)N[C@H](Cc1ccc(O)cc1)C(=O)N[C@@H](CC(C)C)C(=O)N[C@H](CO)C(C)C)C(C)C)C(C)C)C(C)C)C(C)C)C(C)C (stereo partly drawn) [brevibacillin 2V] (X1-[X2]L[dOrn]VVV[dK]VVK[dY]L-Valol) |  |  | > 128 mg/L | 23 fold |  | 45.49 ± 0.24 µg/mL | No hemolytic activity | no cytotoxicity | 
CC=C(NC(=O)C(O)C(C)CC)C(=O)N[C@@H](CC(C)C)C(=O)N[C@H](CCCN)C(=O)N[C@H](C(=O)N[C@H](C(=O)N[C@H](C(=O)N[C@H](CCCCN)C(=O)N[C@H](C(=O)N[C@H](C(=O)N[C@@H](CCCCN)C(=O)N[C@H](Cc1ccc(O)cc1)C(=O)N[C@@H](CC(C)C)C(=O)N[C@H](CO)C(C)C)C(C)C)[C@@H](C)CC)C(C)C)[C@@H](C)CC)[C@@H](C)CC (stereo partly drawn) [brevibacillin I] (X1-[X2]L[dOrn]IIV[dK]IVK[dY]L-Valol) |  |  |  | 2.5- to fivefold | all of the HepG2 cells were killed | 7.38 ± 0.30 µg/mL |  |  | completely lysed
CC=C(NC(=O)C(O)C(C)CC)C(=O)N[C@@H](CC(C)C)C(=O)N[C@H](CCCN)C(=O)N[C@H](C(=O)N[C@H](C(=O)N[C@H](C(=O)N[C@H](CCCCN)C(=O)N[C@H](C(=O)N[C@H](C(=O)N[C@@H](CCCCN)C(=O)N[C@H](Cc1ccc(O)cc1)C(=O)N[C@@H](CC(C)C)C(=O)N[C@H](CO)C(C)C)C(C)C)C(C)C)C(C)C)[C@@H](C)CC)[C@@H](C)CC (stereo partly drawn) [brevibacillin] (X1-[X2]L[dOrn]IIV[dK]VVK[dY]L-Valol) |  |  | 25.1 ± 0.1 mg/L | 2.5- to fivefold | all of the HepG2 cells were killed | 5.21 ± 0.01 µg/mL |  |  | completely lysed

Source: publication PMC8245773, “Brevibacillin 2V, a Novel Antimicrobial Lipopeptide With an Exceptionally Low Hemolytic Activity” (Frontiers in Microbiology, 2021)
